Laboratory results: patent publication US7566808B2, “Management of ophthalmologic disorders, including macular degeneration” (President and Fellows of Harvard College, priority 2004, dated 2009)

System: bovine retinal pigment epithelial membrane system (11-cis-retinol formation)
Test: 11-cis-retinol formation in RPE membranes (IMH activity / RPE65 function)
Type: biochemical
Details: 60 μM, data not shown
Protocol: A control reaction mixture without any inhibitor was also incubated at room temperature for 15 min. At the end of the 15 min incubation, all-trans-retinol [11-12-^3H2] (0.2 μM) was added to the reaction mixtures (100 mM Tris pH 8.0, […] of RPE protein, 0.2% BSA 100 μM of DPPC, 1 mM of DTT and 0.2 μM all-trans-retinol [11-12-^3H2]) and incubated at room temperature for 30 min. At the end of this 30 minutes of incubation, an aliquot of the reactions were quenched to verify the equal addition of all-trans-retinol [11,12-^3H2] and the effect of these inhibitors on LRAT. After this the control reaction mixture was incubated with atRA (60 & 6 μM), 13cRA (60 & 6 μM) or 4-HPR (60 & 6 μM) for 15 min. Now all the reaction mixtures were incubated with 30 μM of apo-rCRALBP (100 mM Tris pH 8.0, 7.7 μg of RPE protein, 0.2% BSA 100 μm of DPPC, 1 mM of DTT 30 μM apo-rCRALBP and 0.2 μM all-trans-retinol [11-12-^3H2]) at 37° C. for 30 minutes. At the end of this incubation period the 200 μL reaction mixture was quenched by the addition of 750 μL ice cold methanol after which 100 μL of 1M sodium chloride solution was added, and 500 μl hexane (containing butylated hydroxy toluene at 1 mg/mL) was added to effect extraction of the retinoids. The retinoids were analyzed as previously described (27). The amount of 11-cis-retinol formed was used as a measurement of IMH activity. All experiments were performed in triplicate and the average values of these measurements were used for analysis.
A control reaction mixture without any inhibitor was also incubated at room temperature for 15 min. At the end of the 15 min incubation, all-trans-retinol [11-12-^3H2] (0.2 μM) was added to the reaction mixtures (100 mM Tris pH 8.0, 76.7 μg of RPE protein, 0.2% BSA 100 μM of DPPC, 1 mM of DTT and 0.2 μM all-trans-retinol [11-12-^3H2]) and incubated at room temperature for 30 min. […] The retinoids were analyzed as previously described (27). […]

SMILES: CC1=C(/C=C/C(C)=C/C=C/C(C)=C\C(=O)O)C(C)(C)CCC1 [13-cis-retinoic acid, reference compound]
- inhibition of 11-cis-retinol formation, membranes pre-incubated with vitamin A before inhibitor: not susceptible to inhibition
